Source: patent publication US10087144B2, “Agents for use in the treatment of cardiovascular and inflammatory diseases structurally based on 4(1 H)-quinolone” (UCL Business PLC, priority 2015, dated 2018)

Assays:
[1] = test system: rat mesenteric artery smooth muscle cells; assay: Ca2+ flux in response to Angiotensin II in isolated rat mesenteric artery smooth muscle cells (FLIPR); format: cell-based; details: inhibition of Angiotensin II (100 nM) Ca2+ flux peak fluorescence
Method: Mesenteric artery smooth muscle cells were isolated from male Sprague-Dawley rats (200-250 g). Mesenteric arteries were dissected, cleared of extraneous tissue and incubated in an enzyme solution containing collagenase type I (1 mg/ml), soybean trypsin inhibitor (0.25 mg/ml), bovine albumin (1 mg/ml), CaCl2 (0.2 mM), 100 U/ml penicillin (100 U/ml) and streptomycin (100 μg/ml) in a humidified incubator with 5% CO2 in air. The enzyme solution was replenished at 30 min intervals and cells were pelleted by centrifugation (200 g, 5 min) and differentially plated (×2) for 15 min in Dulbecco's Modified Eagle's Medium (DMEM) supplemented with penicillin (100 U/ml), streptomycin (100 μg/ml), L-Glutamine (2 mM) and 10% heat inactivated New Zealand foetal calf serum. Cells were passaged by trypsinisation and viability determined by trypan blue exclusion.
Measurements of Ca^2+ flux in response to Angiotensin II were conducted using a Fluorescent Imaging Plate Reader (FLIPR; Molecular Devices). Cells were plated at a density of 10,000 cells/well into black, clear-bottomed 96-well plates in DMEM supplemented with penicillin (100 U/ml), streptomycin (100 μg/ml), L-Glutamine (2 mM) and 10% heat inactivated New Zealand foetal calf serum. 24 hrs later the cells were incubated with Fluo-3-AM (4 μM) for 60 min at 37° C. Once dye-loaded, the cells were washed thoroughly with the proprietary assay buffer to remove any unincorporated dye. The cells were then incubated with varying concentrations of a number of representative NPR-C agonist molecules of the invention, C-type natriuretic peptide or vehicle (DMSO) and placed into the FLIPR. After 15 mins, Angiotensin II (100 nM) was automatically dispensed into each well and the fluorescence signal followed for 5 mins. Potency was determined by comparison of the peak fluorescence in each test well (run in triplicate) with that of the control (Angiotensin II alone). Background fluorescence (assay buffer only) was subtracted from all values.

[2] = test system: rat mesenteric arteries; assay: Vasoreactivity in rat mesenteric arteries in vitro (relaxation of U46619-contracted vessels, tension myograph); details: for % relaxation 1 μM / % relaxation 3 μM / % relaxation 10 μM / % relaxation 30 μM / inhibition at 1 µM / inhibition at 3 µM / inhibition at 10 µM / inhibition at 30 µM: U46619-contracted third-order arteries; for inhibition at 1 µM / inhibition at 3 µM / inhibition at 10 µM / inhibition at 30 µM / EC50: Rattus norvegicus; for EC50: vasorelaxation, calculated from concentration-response curves
Method: Male rats (Sprague-Dawley; 200-250 g) were stunned and killed by cervical dislocation. The mesentery was removed and third-order arteries mounted in an automated tension myograph (Danish Myotechnology). After an equilibration period of 45 min, vessels were normalized and diameter determined. Following normalization, each vessel was contracted repeatedly with the thromboxane A2-mimetic 9,11-dideoxy-11^α,9^α-epoxymethano-prostaglandin F2α (U46619; 1 μM) until the response was reproducible. The vessels were then washed to restore basal tone before contracting to approximately 50% of the maximum U46619-induced response. Once a stable response to U46619 was achieved, cumulative concentration-response curves were constructed with a variety of NPR-C agonists of the invention at varying concentrations (0.001-30 μM), or vehicle (DMSO). In some studies, concentration-response curves to NPR-C agonists were conducted in the presence of the NPR-C antagonist M372049 (10 μM). Only one curve to any one agonist was constructed in any single tissue.

Row | SMILES | inhibition at 1 µM [2] [%] | inhibition at 3 µM [2] [%] | inhibition at 10 µM [2] [%] | inhibition at 30 µM [2] [%] | EC50 [2] [µM] | further results
1 | CC(C)c1cccc2c(=O)c(C(=O)O)c[nH]c12 [Compound 103] | – | – | – | – | – | % inhibition 1 μM ([1]; 1 μM compound): 0%; % inhibition 10 μM ([1]; 10 μM compound): 65%
2 | O=C(O)CNC(=O)c1cnc2ccccn2c1=O [Compound 121] | – | – | – | – | – | % relaxation 1 μM [2]: 5%; % relaxation 3 μM [2]: 2%; % relaxation 10 μM [2]: 3%; % relaxation 30 μM [2]: 17%
3 | C[C@H](NC(=O)c1cn(Cc2ccccc2)c2ccc(Br)cc2c1=O)C(=O)O [Compound 189, (S)-2-(1-benzyl-6-bromo-4-oxo-1,4-dihydroquinoline-3-carboxamido)propanoic acid] | 4 | 12 | 64 | 84 | – | –
4 | Cc1ccc2[nH]cc(C(=O)O)c(=O)c2c1 [Compound 112] | – | – | – | – | – | % inhibition 1 μM ([1]; 1 μM compound): 100%; % inhibition 10 μM ([1]; 10 μM compound): 100%
5 | CC(C)(C)OC(=O)CNC(=O)c1cn(Cc2ccccc2)c2ccccc2c1=O [Compound 87, tert-butyl 2-(1-benzyl-4-oxo-1,4-dihydroquinoline-3-carboxamido)acetate] | – | – | – | – | – | inhibition at 1 µM ([1]; Rattus norvegicus, 1 μM compound, read-out: % inhibition 1 μM): 0%; inhibition at 10 µM ([1]; Rattus norvegicus, 10 μM compound, read-out: % inhibition 10 μM): 67%
6 | C[C@@H]1CN(c2c(F)c(N)c3c(=O)c(C(=O)O)cn(C4CC4)c3c2F)C[C@H](C)N1 [Compound 141] | – | – | – | – | – | % inhibition 1 μM ([1]; 1 μM compound): 0%; % inhibition 10 μM ([1]; 10 μM compound): 28%
7 | COc1ccc2[nH]cc(C(=O)O)c(=O)c2c1 [Compound 104] | – | – | – | – | – | % inhibition 1 μM ([1]; 1 μM compound): 0%; % inhibition 10 μM ([1]; 10 μM compound): 69%
8 | Cc1cc(C)cc(Cn2cc(C(=O)NCC(=O)O)c(=O)c3ccccc32)c1 [Compound 175, 2-(1-(3.5-Dimethylbenzyl)-4-oxo-1,4-dihydroquinoline-3-carboxamido)acetic acid] | 8 | 8 | 12 | 88 | > 50 | –
9 | CCn1cc(C(=O)O)c(=O)c2ccc(C)nc21 [Compound 137] | – | – | – | – | – | % relaxation 1 μM [2]: 0%; % relaxation 3 μM [2]: 1%; % relaxation 10 μM [2]: 9%; % relaxation 30 μM [2]: 69%
10 | O=C(O)CNC(=O)c1c[nH]c2ccccc2c1=O [Compound 178, 2-(4-Oxo-1,4-dihydroquinoline-3-carboxamido)acetic acid] | 5 | 6 | 11 | 16 | 17.4 | –
11 | O=C(O)CNC(=O)c1cn(Cc2ccc(OC(F)(F)F)cc2)c2ccccc2c1=O [Compound 176, 2-(4-Oxo-1-(4-(trifluoromethoxy)benzyl)-1,4-dihydroquinoline-3-carboxamido)acetic acid] | 8 | 9 | 17 | 91 | > 50 | –
12 | O=C(O)CNC(=O)c1cn(Cc2ccccc2F)c2ccccc2c1=O [Compound 173, 2-(1-(2-Fluorobenzyl)-4-oxo-1,4-dihydroquinoline-3-carboxamido)acetic acid] | 4 | 13 | 15 | 79 | > 50 | –
13 | C[C@H](NC(=O)c1cn(Cc2ccccc2)c2ccccc2c1=O)C(=O)O [Compound 202, (S)-2-(1-benzyl-4-oxo-1,4-dihydroquinoline-3-carboxamido)-2-methylethanoic acid] | 2 | 3 | 20 | 36 | 20.3 | –
14 | CC(C)C[C@H](NC(=O)c1cn(Cc2ccccc2)c2ccc(Br)cc2c1=O)C(=O)O [Compound 188, (S)-2-(1-benzyl-6-bromo-4-oxo-1,4-dihydroquinoline-3-carboxamido)-4-methylpentanoic acid] | 4 | 3 | 2 | 87 | > 50 | –
15 | O=C(NC(Cc1ccccc1)C(=O)O)c1cnc2ccccn2c1=O (stereo not drawn) [Compound 205] | – | – | – | – | – | % relaxation 1 μM [2]: −9%; % relaxation 3 μM [2]: 13%; % relaxation 10 μM [2]: 13%; % relaxation 30 μM [2]: 14%
16 | O=C(O)c1cn(Cc2cccc(Cl)c2)c2ccccc2c1=O [Compound 155, 1-(3-Chlorobenzyl)-4-oxo-1,4-dihydroquinoline-3-carboxylic acid] | 4 | 6 | 10 | 25 | – | –
17 | CC(C)C(NC(=O)c1cnc2ccccn2c1=O)C(=O)O (stereo not drawn) [Compound 120] | – | – | – | – | – | % relaxation 1 μM [2]: 0%; % relaxation 3 μM [2]: 3%; % relaxation 10 μM [2]: 3%; % relaxation 30 μM [2]: 20%
18 | O=C(N[C@@H](Cc1ccccc1)C(=O)O)c1cn(Cc2ccccc2)c2ccccc2c1=O [Compound 200, (S)-2-(1-benzyl-4-oxo-1,4-dihydroquinoline-3-carboxamido)-3-phenylpropanoic acid] | 4 | 10 | 67 | 89 | > 50 | –
19 | CC(NC(=O)c1cnc2ccccn2c1=O)C(=O)O (stereo not drawn) [Compound 203] | – | – | – | – | – | % relaxation 1 μM [2]: 7%; % relaxation 3 μM [2]: 6%; % relaxation 10 μM [2]: 28%; % relaxation 30 μM [2]: 50%
20 | COc1ccc(Cn2cc(C(=O)NCC(=O)O)c(=O)c3ccccc32)cc1 [Compound 174, 2-(1-(4-Methoxybenzyl)-4-oxo-1,4-dihydroquinoline-3-carboxamido)acetic acid] | 4 | 4 | 8 | 20 | > 50 | –
21 | CCn1cc(C(=O)NCC(=O)O)c(=O)c2ccccc21 [Compound 171, 2-(1-Ethyl-4-oxo-1,4-dihydroquinoline-3-carboxamido)acetic acid] | 2 | 2 | 8 | 20 | > 50 | –
22 | CC(C)CC(NC(=O)c1cnc2ccccn2c1=O)C(=O)O (stereo not drawn) [Compound 204] | – | – | – | – | – | % relaxation 1 μM [2]: 9%; % relaxation 3 μM [2]: 18%; % relaxation 10 μM [2]: 30%; % relaxation 30 μM [2]: 92%
23 | O=C(N[C@@H](Cc1ccccc1)C(=O)O)c1cn(Cc2ccccc2)c2ccc(Br)cc2c1=O [Compound 187, (S)-2-(1-benzyl-6-bromo-4-oxo-1,4-dihydroquinoline-3-carboxamido)-3-phenylpropanoic acid] | 31 | 57 | 93 | 100 | 1.6 | –
24 | O=C(O)CNC(=O)c1cn(Cc2cccc(Cl)c2)c2ccccc2c1=O [Compound 172, 2-(1-(3-Chlorobenzyl)-4-oxo-1,4-dihydroquinoline-3-carboxamido)acetic acid] | 5 | 20 | 43 | 91 | > 50 | –
25 | CC(C)(C)OC(=O)n1cc(C(=O)O)c(=O)c2ccccc21 [Compound 81] | 1 | 1 | 7 | 25 | – | –
26 | CC(C)C[C@H](NC(=O)c1cn(Cc2ccccc2)c2ccccc2c1=O)C(=O)O [Compound 201, (S)-2-(1-benzyl-4-oxo-1,4-dihydroquinoline-3-carboxamido)-4-methylpentanoic acid] | 0 | 0 | 0 | 82 | > 50 | –
27 | O=C(O)CNC(=O)c1cn(Cc2ccccc2Cl)c2ccccc2c1=O [Compound 177, 2-(1-(2-Chlorobenzyl)-4-oxo-1,4-dihydroquinoline-3-carboxyamido)acetic acid] | 1 | 3 | 6 | 52 | > 50 | –
